Assay results: patent publication US6689773B2, “Uracil substituted phenyl sulfamoyl carboxamides” (BASF Aktiengesellschaft, priority 2000, dated 2004)

How the values were obtained:
Type in all cases: in vivo
[1] = tested on: ABUTH, Velvetleaf, Abutilon theophrasti, Medic.; test: Postemergence herbicidal evaluation (Example 147); conditions: rating scale 0-9, two to three weeks after treatment
How it was run: (§1)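 About two-week-old seedlings were sprayed postemergence at roughly 0.016–0.032 kg/ha in 80/20 acetone/water with 1.0% methylated seed oil. After two to three weeks in the greenhouse, injury was rated visually on a 0–9 scale against controls, and repeat tests were averaged.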

[2] = tested on: ALOMY, Blackgrass, Alopecurus myosuroides; test: Postemergence herbicidal evaluation (Example 147); conditions: rating scale 0-9, two to three weeks after treatment
How it was run: as §1

[3] = tested on: AMBEL, Ragweed, Common, Ambrosia artemiisifolia, L.; test: Postemergence herbicidal evaluation (Example 147); conditions: rating scale 0-9, two to three weeks after treatment
How it was run: as §1

[4] = tested on: CHEAL, Lambsquarters, Chenopodium album, L. Common; test: Postemergence herbicidal evaluation (Example 147); conditions: rating scale 0-9, two to three weeks after treatment
How it was run: as §1

[5] = tested on: DIGSA, Crabgrass, (Hairy) L, Digitaria sanguinalis, (L)Scop; test: Postemergence herbicidal evaluation (Example 147); conditions: rating scale 0-9, two to three weeks after treatment
How it was run: as §1

[6] = tested on: ECHCG, Barnyardgrass, Echinochloa crusgalli, (L.)Beau; test: Postemergence herbicidal evaluation (Example 147); conditions: rating scale 0-9, two to three weeks after treatment
How it was run: as §1

[7] = tested on: GLXMA, Soybean, Glycine max, (L.) Merr.; test: Postemergence herbicidal evaluation (Example 147); conditions: rating scale 0-9, two to three weeks after treatment
How it was run: as §1

[8] = tested on: IPOHE, Morningglory, Ivyleaf, Ipomoea hederacea, (L)Jacq.; test: Postemergence herbicidal evaluation (Example 147); conditions: rating scale 0-9, two to three weeks after treatment
How it was run: as §1

[9] = tested on: SETVI, Green foxtail, Setaria viridis, (L.)Beau; test: Postemergence herbicidal evaluation (Example 147); conditions: rating scale 0-9, two to three weeks after treatment
How it was run: as §1

[10] = tested on: TRZAW, Winter wheat, Tritium Aestivum, L. (Winter); test: Postemergence herbicidal evaluation (Example 147); conditions: rating scale 0-9, two to three weeks after treatment
How it was run: as §1

[11] = tested on: ZEAMX, Field corn, Zea mays L.; test: Postemergence herbicidal evaluation (Example 147); conditions: rating scale 0-9, two to three weeks after treatment
How it was run: as §1

[12] = tested on: ABUTH, Velvetleaf, Abutilon theophrasti, Medic.; test: Preemergence herbicidal evaluation (Example 148); conditions: rating scale 0-9, two to four weeks after treatment
How it was run: (§2)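 Each species was planted separately in cups, its seed mixed into potting soil over roughly an inch of soil. Spraying with compound in aqueous acetone followed planting (~0.125–0.250 kg/ha). Overall appearance, chlorosis and stand were compared with a control after 2–4 weeks.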

[13] = tested on: ALOMY, Blackgrass, Alopecurus myosuroides; test: Preemergence herbicidal evaluation (Example 148); conditions: rating scale 0-9, two to four weeks after treatment
How it was run: as §2

[14] = tested on: AMBEL, Ragweed, Common, Ambrosia artemiisifolia, L.; test: Preemergence herbicidal evaluation (Example 148); conditions: rating scale 0-9, two to four weeks after treatment
How it was run: as §2

[15] = tested on: CHEAL, Lambsquarters, Chenopodium album, L. Common; test: Preemergence herbicidal evaluation (Example 148); conditions: rating scale 0-9, two to four weeks after treatment
How it was run: as §2

[16] = tested on: DIGSA, Crabgrass, (Hairy) L, Digitaria sanguinalis, (L)Scop; test: Preemergence herbicidal evaluation (Example 148); conditions: rating scale 0-9, two to four weeks after treatment
How it was run: as §2

[17] = tested on: ECHCG, Barnyardgrass, Echinochloa crusgalli, (L.)Beau; test: Preemergence herbicidal evaluation (Example 148); conditions: rating scale 0-9, two to four weeks after treatment
How it was run: as §2

[18] = tested on: GLXMA, Soybean, Glycine max, (L.) Merr.; test: Preemergence herbicidal evaluation (Example 148); conditions: rating scale 0-9, two to four weeks after treatment
How it was run: as §2

[19] = tested on: IPOHE, Morningglory, Ivyleaf, Ipomoea hederacea, (L)Jacq.; test: Preemergence herbicidal evaluation (Example 148); conditions: rating scale 0-9, two to four weeks after treatment
How it was run: as §2

[20] = tested on: SETVI, Green foxtail, Setaria viridis, (L.)Beau; test: Preemergence herbicidal evaluation (Example 148); conditions: rating scale 0-9, two to four weeks after treatment
How it was run: as §2

[21] = tested on: TRZAW, Winter wheat, Tritium Aestivum, L. (Winter); test: Preemergence herbicidal evaluation (Example 148); conditions: rating scale 0-9, two to four weeks after treatment
How it was run: as §2

[22] = tested on: XANST, Cocklebur, Xanthium strumariam; test: Preemergence herbicidal evaluation (Example 148); conditions: rating scale 0-9, two to four weeks after treatment
How it was run: as §2

[23] = tested on: ZEAMX, Field corn, Zea mays L.; test: Preemergence herbicidal evaluation (Example 148); conditions: rating scale 0-9, two to four weeks after treatment
How it was run: as §2

CN(c1ccccc1)S(=O)(=O)NC(=O)c1cc(-n2c(=O)cc(C(F)(F)F)n(C)c2=O)c(F)cc1Cl [Example 73]
Postemergence herbicidal rating ABUTH ([1]; rate 0.016 kg/ha): 9.0 | Postemergence herbicidal rating ABUTH ([1]; rate 0.032 kg/ha): 9.0 | Postemergence herbicidal rating ALMOY ([2]; rate 0.016 kg/ha): 2.0 | Postemergence herbicidal rating ALMOY ([2]; rate 0.032 kg/ha): 3.0 | Postemergence herbicidal rating AMBEL ([3]; rate 0.016 kg/ha): 9.0 | Postemergence herbicidal rating AMBEL ([3]; rate 0.032 kg/ha): 9.0 | Postemergence herbicidal rating CHEAL ([4]; rate 0.016 kg/ha): 8.0 | Postemergence herbicidal rating CHEAL ([4]; rate 0.032 kg/ha): 9.0 | Postemergence herbicidal rating DIGSA ([5]; rate 0.016 kg/ha): 4.0 | Postemergence herbicidal rating DIGSA ([5]; rate 0.032 kg/ha): 6.0 | Postemergence herbicidal rating ECHCG ([6]; rate 0.016 kg/ha): 4.0 | Postemergence herbicidal rating ECHCG ([6]; rate 0.032 kg/ha): 7.0 | Postemergence herbicidal rating GLXMA ([7]; rate 0.016 kg/ha): 8.5 | Postemergence herbicidal rating GLXMA ([7]; rate 0.032 kg/ha): 8.5 | Postemergence herbicidal rating IPOHE ([8]; rate 0.016 kg/ha): 9.0 | Postemergence herbicidal rating IPOHE ([8]; rate 0.032 kg/ha): 9.0 | Postemergence herbicidal rating SETVI ([9]; rate 0.016 kg/ha): 4.0 | Postemergence herbicidal rating SETVI ([9]; rate 0.032 kg/ha): 5.0 | Postemergence herbicidal rating TRZAW ([10]; rate 0.016 kg/ha): 5.5 | Postemergence herbicidal rating TRZAW ([10]; rate 0.032 kg/ha): 6.5 | Postemergence herbicidal rating ZEAMX ([11]; rate 0.016 kg/ha): 7.0 | Postemergence herbicidal rating ZEAMX ([11]; rate 0.032 kg/ha): 7.5 | Preemergence herbicidal rating ABUTH ([12]; rate 0.125 kg/ha): 9.0 | Preemergence herbicidal rating ABUTH ([12]; rate 0.25 kg/ha): 9.0 | Preemergence herbicidal rating ALMOY ([13]; rate 0.125 kg/ha): 0.0 | Preemergence herbicidal rating ALMOY ([13]; rate 0.25 kg/ha): 0.0 | Preemergence herbicidal rating AMBEL ([14]; rate 0.125 kg/ha): 9.0 | Preemergence herbicidal rating AMBEL ([14]; rate 0.25 kg/ha): 9.0 | Preemergence herbicidal rating CHEAL ([15]; rate 0.125 kg/ha): 9.0 | Preemergence herbicidal rating CHEAL ([15]; rate 0.25 kg/ha): 9.0 | Preemergence herbicidal rating DIGSA ([16]; rate 0.125 kg/ha): 3.0 | Preemergence herbicidal rating DIGSA ([16]; rate 0.25 kg/ha): 3.0 | Preemergence herbicidal rating ECHCG ([17]; rate 0.125 kg/ha): 0.0 | Preemergence herbicidal rating ECHCG ([17]; rate 0.25 kg/ha): 3.0 | Preemergence herbicidal rating GLXMA ([18]; rate 0.125 kg/ha): 0.0 | Preemergence herbicidal rating GLXMA ([18]; rate 0.25 kg/ha): 0.0 | Preemergence herbicidal rating IPOHE ([19]; rate 0.125 kg/ha): 9.0 | Preemergence herbicidal rating IPOHE ([19]; rate 0.25 kg/ha): 9.0 | Preemergence herbicidal rating SETVI ([20]; rate 0.125 kg/ha): 2.0 | Preemergence herbicidal rating SETVI ([20]; rate 0.25 kg/ha): 5.0 | Preemergence herbicidal rating TRZAW ([21]; rate 0.125 kg/ha): 0.0 | Preemergence herbicidal rating TRZAW ([21]; rate 0.25 kg/ha): 0.0 | Preemergence herbicidal rating XANST ([22]; rate 0.125 kg/ha): 3.0 | Preemergence herbicidal rating XANST ([22]; rate 0.25 kg/ha): 9.0 | Preemergence herbicidal rating ZEAMX ([23]; rate 0.125 kg/ha): 0.0 | Preemergence herbicidal rating ZEAMX ([23]; rate 0.25 kg/ha): 0.0

CC(C)CCNS(=O)(=O)NC(=O)c1cc(-n2c(=O)cc(C(F)(F)F)n(C)c2=O)c(F)cc1Cl [Example 72]
Postemergence herbicidal rating ABUTH ([1]; rate 0.016 kg/ha): 9.0 | Postemergence herbicidal rating ABUTH ([1]; rate 0.032 kg/ha): 9.0 | Postemergence herbicidal rating ALMOY ([2]; rate 0.016 kg/ha): 1.0 | Postemergence herbicidal rating ALMOY ([2]; rate 0.032 kg/ha): 2.0 | Postemergence herbicidal rating AMBEL ([3]; rate 0.016 kg/ha): 9.0 | Postemergence herbicidal rating AMBEL ([3]; rate 0.032 kg/ha): 9.0 | Postemergence herbicidal rating CHEAL ([4]; rate 0.016 kg/ha): 8.0 | Postemergence herbicidal rating CHEAL ([4]; rate 0.032 kg/ha): 8.0 | Postemergence herbicidal rating DIGSA ([5]; rate 0.016 kg/ha): 4.0 | Postemergence herbicidal rating DIGSA ([5]; rate 0.032 kg/ha): 4.0 | Postemergence herbicidal rating ECHCG ([6]; rate 0.016 kg/ha): 6.0 | Postemergence herbicidal rating ECHCG ([6]; rate 0.032 kg/ha): 8.0 | Postemergence herbicidal rating GLXMA ([7]; rate 0.016 kg/ha): 8.5 | Postemergence herbicidal rating GLXMA ([7]; rate 0.032 kg/ha): 8.5 | Postemergence herbicidal rating IPOHE ([8]; rate 0.016 kg/ha): 9.0 | Postemergence herbicidal rating IPOHE ([8]; rate 0.032 kg/ha): 9.0 | Postemergence herbicidal rating SETVI ([9]; rate 0.016 kg/ha): 5.0 | Postemergence herbicidal rating SETVI ([9]; rate 0.032 kg/ha): 6.0 | Postemergence herbicidal rating TRZAW ([10]; rate 0.016 kg/ha): 5.5 | Postemergence herbicidal rating TRZAW ([10]; rate 0.032 kg/ha): 6.5 | Postemergence herbicidal rating ZEAMX ([11]; rate 0.016 kg/ha): 7.0 | Postemergence herbicidal rating ZEAMX ([11]; rate 0.032 kg/ha): 7.0 | Preemergence herbicidal rating ABUTH ([12]; rate 0.125 kg/ha): 9.0 | Preemergence herbicidal rating ABUTH ([12]; rate 0.25 kg/ha): 9.0 | Preemergence herbicidal rating ALMOY ([13]; rate 0.125 kg/ha): 1.0 | Preemergence herbicidal rating ALMOY ([13]; rate 0.25 kg/ha): 2.0 | Preemergence herbicidal rating AMBEL ([14]; rate 0.125 kg/ha): 9.0 | Preemergence herbicidal rating AMBEL ([14]; rate 0.25 kg/ha): 9.0 | Preemergence herbicidal rating CHEAL ([15]; rate 0.125 kg/ha): 9.0 | Preemergence herbicidal rating CHEAL ([15]; rate 0.25 kg/ha): 9.0 | Preemergence herbicidal rating DIGSA ([16]; rate 0.125 kg/ha): 2.0 | Preemergence herbicidal rating DIGSA ([16]; rate 0.25 kg/ha): 7.0 | Preemergence herbicidal rating ECHCG ([17]; rate 0.125 kg/ha): 7.0 | Preemergence herbicidal rating ECHCG ([17]; rate 0.25 kg/ha): 6.0 | Preemergence herbicidal rating GLXMA ([18]; rate 0.125 kg/ha): 8.0 | Preemergence herbicidal rating GLXMA ([18]; rate 0.25 kg/ha): 9.0 | Preemergence herbicidal rating IPOHE ([19]; rate 0.125 kg/ha): 9.0 | Preemergence herbicidal rating IPOHE ([19]; rate 0.25 kg/ha): 9.0 | Preemergence herbicidal rating SETVI ([20]; rate 0.125 kg/ha): 4.0 | Preemergence herbicidal rating SETVI ([20]; rate 0.25 kg/ha): 8.0 | Preemergence herbicidal rating TRZAW ([21]; rate 0.125 kg/ha): 0.0 | Preemergence herbicidal rating TRZAW ([21]; rate 0.25 kg/ha): 1.0 | Preemergence herbicidal rating XANST ([22]; rate 0.125 kg/ha): 7.0 | Preemergence herbicidal rating XANST ([22]; rate 0.25 kg/ha): 9.0 | Preemergence herbicidal rating ZEAMX ([23]; rate 0.125 kg/ha): 0.0 | Preemergence herbicidal rating ZEAMX ([23]; rate 0.25 kg/ha): 0.0
